Test results taken from ChEMBL document CHEMBL1157753, “Stereochemical requirements for the mineralocorticoid receptor antagonist activity of dihydropyridines” (J Med Chem, 2010).

Experiments:
[1] = molecular target: T1, Mineralocorticoid receptor (Homo sapiens, UniProt P08235)
T1 sequence (P08235 whole entry): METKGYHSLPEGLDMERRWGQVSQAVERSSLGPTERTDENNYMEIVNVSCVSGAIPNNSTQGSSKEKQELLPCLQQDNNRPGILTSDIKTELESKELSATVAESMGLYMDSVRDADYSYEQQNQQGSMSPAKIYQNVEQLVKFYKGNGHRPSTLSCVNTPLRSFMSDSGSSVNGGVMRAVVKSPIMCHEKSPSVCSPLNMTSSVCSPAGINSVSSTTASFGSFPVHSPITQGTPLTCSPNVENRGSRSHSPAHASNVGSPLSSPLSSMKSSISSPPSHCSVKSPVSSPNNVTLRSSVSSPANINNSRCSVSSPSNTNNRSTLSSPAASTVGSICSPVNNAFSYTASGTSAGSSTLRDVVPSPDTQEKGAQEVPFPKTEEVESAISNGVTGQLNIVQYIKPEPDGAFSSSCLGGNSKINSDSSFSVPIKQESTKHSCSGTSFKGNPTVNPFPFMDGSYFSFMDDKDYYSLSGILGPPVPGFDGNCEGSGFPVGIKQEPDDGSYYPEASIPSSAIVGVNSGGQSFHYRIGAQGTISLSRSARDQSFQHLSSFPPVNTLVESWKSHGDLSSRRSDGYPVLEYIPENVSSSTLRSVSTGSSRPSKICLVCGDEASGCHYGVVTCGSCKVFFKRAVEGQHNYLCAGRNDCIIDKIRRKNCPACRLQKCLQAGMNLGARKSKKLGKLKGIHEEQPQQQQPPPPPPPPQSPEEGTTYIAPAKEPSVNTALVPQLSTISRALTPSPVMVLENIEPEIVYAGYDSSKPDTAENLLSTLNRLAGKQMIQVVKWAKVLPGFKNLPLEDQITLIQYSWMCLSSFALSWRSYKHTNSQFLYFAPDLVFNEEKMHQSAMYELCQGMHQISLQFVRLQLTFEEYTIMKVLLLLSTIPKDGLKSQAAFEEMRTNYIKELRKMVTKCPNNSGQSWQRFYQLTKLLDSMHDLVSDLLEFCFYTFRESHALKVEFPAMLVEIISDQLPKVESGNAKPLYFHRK
Description: Antagonist activity at Gal4-fused mineralocorticoid receptor expressed in human HuH7 cells assessed as inhibition of aldosterone-induced receptor activation by luciferase reporter gene assay

[2] = molecular target: Voltage-gated L-type calcium channel (Rattus norvegicus, UniProt P22002+Q02485+P27732); assay: Inhibition of L-type calcium channel in rat A10 cells assessed as inhibition of depolarization-induced increase in calcium flux after 10 mins by FLIPR assay
[3] = molecular target: T2, Glucocorticoid receptor (Homo sapiens, UniProt P04150); assay: Inhibition of glucocorticoid receptor
T2 sequence (P04150 whole entry): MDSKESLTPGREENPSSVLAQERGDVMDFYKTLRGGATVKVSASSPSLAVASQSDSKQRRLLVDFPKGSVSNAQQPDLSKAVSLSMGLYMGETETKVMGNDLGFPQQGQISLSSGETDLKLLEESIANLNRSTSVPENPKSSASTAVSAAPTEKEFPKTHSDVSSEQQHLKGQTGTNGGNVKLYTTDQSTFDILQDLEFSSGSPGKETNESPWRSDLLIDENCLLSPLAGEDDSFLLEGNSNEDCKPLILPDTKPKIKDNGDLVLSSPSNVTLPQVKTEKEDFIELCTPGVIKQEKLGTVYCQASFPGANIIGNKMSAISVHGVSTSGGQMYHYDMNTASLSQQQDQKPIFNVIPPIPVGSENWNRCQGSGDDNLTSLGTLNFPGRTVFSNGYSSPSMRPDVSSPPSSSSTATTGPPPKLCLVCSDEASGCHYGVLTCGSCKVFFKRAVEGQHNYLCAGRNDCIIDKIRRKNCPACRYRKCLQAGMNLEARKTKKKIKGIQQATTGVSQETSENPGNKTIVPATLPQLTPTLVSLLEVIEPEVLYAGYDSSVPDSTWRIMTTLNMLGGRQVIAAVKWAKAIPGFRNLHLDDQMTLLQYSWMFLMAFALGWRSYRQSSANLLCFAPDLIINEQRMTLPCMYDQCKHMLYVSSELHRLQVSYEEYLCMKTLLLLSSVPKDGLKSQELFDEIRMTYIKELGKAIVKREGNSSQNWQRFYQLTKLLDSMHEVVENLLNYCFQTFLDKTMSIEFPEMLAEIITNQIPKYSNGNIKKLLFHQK

[4] = molecular target: T3, Androgen receptor (Homo sapiens, UniProt P10275); assay: Inhibition of androgen receptor
T3 sequence (P10275 whole entry): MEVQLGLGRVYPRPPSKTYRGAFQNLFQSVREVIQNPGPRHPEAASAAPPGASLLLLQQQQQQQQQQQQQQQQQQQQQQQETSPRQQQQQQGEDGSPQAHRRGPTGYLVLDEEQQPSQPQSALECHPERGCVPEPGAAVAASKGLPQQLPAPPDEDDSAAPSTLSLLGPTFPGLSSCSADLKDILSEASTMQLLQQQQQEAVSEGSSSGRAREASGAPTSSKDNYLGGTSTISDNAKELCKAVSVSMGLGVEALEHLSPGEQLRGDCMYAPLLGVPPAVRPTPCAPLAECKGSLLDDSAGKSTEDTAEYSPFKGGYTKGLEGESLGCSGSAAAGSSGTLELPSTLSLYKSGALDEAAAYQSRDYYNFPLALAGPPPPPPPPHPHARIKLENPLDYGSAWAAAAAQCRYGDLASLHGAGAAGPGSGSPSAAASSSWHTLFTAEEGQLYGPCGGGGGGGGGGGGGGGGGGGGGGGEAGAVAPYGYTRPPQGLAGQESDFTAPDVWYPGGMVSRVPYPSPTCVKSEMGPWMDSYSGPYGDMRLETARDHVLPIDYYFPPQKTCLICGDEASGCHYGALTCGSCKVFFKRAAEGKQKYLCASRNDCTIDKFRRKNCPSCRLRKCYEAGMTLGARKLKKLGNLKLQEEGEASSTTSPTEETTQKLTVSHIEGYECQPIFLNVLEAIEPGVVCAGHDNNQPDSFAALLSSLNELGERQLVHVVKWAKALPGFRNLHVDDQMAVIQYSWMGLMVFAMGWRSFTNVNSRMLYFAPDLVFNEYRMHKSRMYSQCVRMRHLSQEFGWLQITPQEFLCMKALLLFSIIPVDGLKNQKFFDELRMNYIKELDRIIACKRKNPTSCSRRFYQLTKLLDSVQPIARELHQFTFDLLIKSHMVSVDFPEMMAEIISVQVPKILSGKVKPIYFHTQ

[5] = molecular target: T4, Progesterone receptor (Homo sapiens, UniProt P06401); assay: Inhibition of progesterone receptor
T4 sequence (P06401 whole entry): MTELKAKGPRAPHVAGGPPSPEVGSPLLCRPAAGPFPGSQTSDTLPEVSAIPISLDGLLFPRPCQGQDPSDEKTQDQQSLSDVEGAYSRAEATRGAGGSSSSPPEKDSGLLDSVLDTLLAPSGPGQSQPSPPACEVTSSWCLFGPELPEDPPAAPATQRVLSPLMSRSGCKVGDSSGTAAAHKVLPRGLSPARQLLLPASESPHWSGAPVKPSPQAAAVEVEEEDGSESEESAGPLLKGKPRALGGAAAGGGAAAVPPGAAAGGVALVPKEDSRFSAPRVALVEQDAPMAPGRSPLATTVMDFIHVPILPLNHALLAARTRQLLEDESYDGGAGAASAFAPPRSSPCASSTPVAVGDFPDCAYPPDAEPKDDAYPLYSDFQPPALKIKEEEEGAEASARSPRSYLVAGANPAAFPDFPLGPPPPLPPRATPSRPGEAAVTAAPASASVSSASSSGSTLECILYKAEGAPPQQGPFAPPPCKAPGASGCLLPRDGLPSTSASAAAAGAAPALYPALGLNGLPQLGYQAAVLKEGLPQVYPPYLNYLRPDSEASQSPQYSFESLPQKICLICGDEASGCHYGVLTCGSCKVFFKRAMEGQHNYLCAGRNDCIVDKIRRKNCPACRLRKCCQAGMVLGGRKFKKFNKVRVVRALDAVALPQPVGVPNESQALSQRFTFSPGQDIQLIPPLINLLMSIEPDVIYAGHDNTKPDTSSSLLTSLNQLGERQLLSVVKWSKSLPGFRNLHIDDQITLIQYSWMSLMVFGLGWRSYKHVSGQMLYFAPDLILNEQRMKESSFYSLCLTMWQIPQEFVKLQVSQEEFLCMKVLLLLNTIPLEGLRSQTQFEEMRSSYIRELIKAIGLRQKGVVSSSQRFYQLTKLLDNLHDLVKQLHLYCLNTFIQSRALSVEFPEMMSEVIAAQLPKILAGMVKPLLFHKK

[6] = molecular target: T5, Estrogen receptor (Homo sapiens, UniProt P03372); assay: Inhibition of estrogen receptor
T5 sequence (P03372 whole entry): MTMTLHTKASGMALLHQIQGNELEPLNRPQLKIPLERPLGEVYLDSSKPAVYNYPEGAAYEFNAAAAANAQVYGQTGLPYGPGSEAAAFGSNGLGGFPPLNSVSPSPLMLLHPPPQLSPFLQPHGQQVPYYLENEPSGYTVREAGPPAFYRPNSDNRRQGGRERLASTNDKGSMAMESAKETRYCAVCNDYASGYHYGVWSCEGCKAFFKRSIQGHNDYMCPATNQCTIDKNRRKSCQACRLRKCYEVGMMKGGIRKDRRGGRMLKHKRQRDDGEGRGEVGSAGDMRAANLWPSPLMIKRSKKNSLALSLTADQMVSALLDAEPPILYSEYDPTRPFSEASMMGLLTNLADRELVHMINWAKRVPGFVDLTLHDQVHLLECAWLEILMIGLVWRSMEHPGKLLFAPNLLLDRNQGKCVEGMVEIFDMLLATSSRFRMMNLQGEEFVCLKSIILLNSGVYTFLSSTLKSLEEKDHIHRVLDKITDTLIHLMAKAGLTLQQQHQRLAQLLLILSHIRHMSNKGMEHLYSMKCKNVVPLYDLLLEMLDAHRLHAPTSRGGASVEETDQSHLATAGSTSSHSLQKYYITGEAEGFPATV

[7] = Clearance in Sprague-Dawley rat at 2 mg/kg, iv by LC/MS/MS analysis; format: ADME, organism-based; design: dose 2 mg/kg, route intravenous; details: in vivo
[8] = (§1) Half life in Sprague-Dawley rat at 2 mg/kg, iv by LC/MS/MS analysis; format: ADME, organism-based; design: dose 2 mg/kg, route intravenous; details: Sprague-Dawley, in vivo
[9] = Volume of distribution at steady state in Sprague-Dawley rat at 2 mg/kg, iv by LC/MS/MS analysis; format: ADME, organism-based; design: dose 2 mg/kg, route intravenous; details: in vivo, read-out: Vdss
[10] = test system: Rattus norvegicus; assay: as §1; format: ADME, organism-based; design: dose 2 mg/kg, route intravenous; details: in vivo

Row | Compound | IC50 [1] | IC50 [2] | other results
1 | COC(=O)C1=C(C)NC(C)=C(C(=O)OC(C)(C)C)[C@H]1c1cccc([N+](=O)[O-])c1 | 536 nM | > 0.5 nM | 
2 | CCCC1=C(C(=O)OCC)C(c2ccnc3ccccc23)C(C#N)=C(C)N1 (racemic) | 31 nM | 1100 nM | 
3 | COC(=O)C1=C(CCl)NC(C)=C(C#N)[C@H]1c1ccnc2ccccc12 | 340 nM | 7930 nM | 
4 | CC1=C(C#N)C(c2ccc(F)cc2Cl)C(C(=O)OC(C)(C)C)=C(C)N1 (racemic) | 59 nM | > 1550 nM | 
5 | CCCC1=C(C(=O)OCC)[C@H](c2ccnc3ccccc23)C(C#N)=C(C)N1 | 10 nM | 2200 nM | IC50 [3]: 270 nM; IC50 [4]: 730 nM; IC50 [5]: 1340 nM; IC50 [6]: > 10000 nM; clearance [7]: 9.7 mL/min/kg; half-life [8]: 6.54 h; Vd [9]: 0.42 L/kg
6 | COC(=O)C1=C(C)NC(C)=C(C#N)[C@@H]1c1ccnc2ccccc12 | 469 nM | 14570 nM | 
7 | COC(=O)C1=C(C)NC(C)=C(C#N)[C@H]1c1ccnc2ccccc12 | 77 nM | 7730 nM | 
8 | COC(=O)C1=C(CCl)NC(C)=C(C#N)[C@@H]1c1ccnc2ccccc12 | 2800 nM | 11270 nM | 
9 | COC(=O)[C@@H]1CC2=CC(=O)CC[C@]2(C)[C@@]23O[C@@H]2C[C@@]2(C)[C@@H](CC[C@@]24CCC(=O)O4)[C@H]13 [EPLERENONE] |  | > 5000 nM | 
10 | COC(=O)C1=C(CCl)NC(C)=C(C#N)[C@H]1c1ccc(F)cc1Cl | 41 nM | 2070 nM | 
11 | CC1=C(C#N)[C@@H](c2ccc(F)cc2Cl)C(C(=O)OC(C)(C)C)=C(C)N1 | 3.7 nM |  | IC50 [3]: 1370 nM; IC50 [4]: 246 nM; IC50 [5]: 3520 nM; IC50 [6]: > 10000 nM; t1/2 [10]: 1.14 h
12 | CC1=C(C#N)[C@H](c2ccc(F)cc2Cl)C(C(=O)OC(C)(C)C)=C(C)N1 | 3520 nM | 3840 nM | 
13 | COC(=O)C1=C(CCl)NC(C)=C(C#N)[C@@H]1c1ccc(F)cc1Cl | 2200 nM | 570 nM | 
14 | COC(=O)C1=C(C)NC(C)=C(C(=O)OC(C)(C)C)C1c1cccc([N+](=O)[O-])c1 (racemic) [MEBUDIPINE] | 126 nM | > 20 nM | 
15 | CCCC1=C(C(=O)OCC)[C@@H](c2ccnc3ccccc23)C(C#N)=C(C)N1 | 3280 nM | 1330 nM | 
16 | COC(=O)C1=C(C)NC(C)=C(C(=O)OC(C)(C)C)[C@@H]1c1cccc([N+](=O)[O-])c1 | 46 nM | 607 nM | IC50 [3]: 3260 nM; IC50 [4]: 1270 nM; IC50 [5]: 768 nM
